molecular target: T1, XIAP-BIR3 (Homo sapiens, UniProt P98170); assay: XIAP BIR-3 fluorescence polarization binding assay; conditions: 5 nM AbuRPF-K(5-Fam)-NH2, 40 nM XIAP-BIR3, 15 min RT, pH 7.5; read-out: KD Range
T1 construct: 40 nM of XIAP-BIR3 for 15 min at RT
Experimental: Following incubation, the polarization values (mP) were measured on a Victor^2V using a 485 nm excitation filter and a 520 nm emission filter. IC50 values were determined from the plot using nonlinear least-squares analysis using GraphPad Prism.

T1 sequence (P98170 241-356 limits assumed): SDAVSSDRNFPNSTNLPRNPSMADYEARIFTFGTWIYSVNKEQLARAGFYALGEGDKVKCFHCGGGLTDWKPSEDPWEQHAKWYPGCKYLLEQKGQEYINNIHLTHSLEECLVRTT

| Kd | Structure (SMILES) |
| --- | --- |
| 1000 to 10000 nM | CNC(C)C(=O)NC(C(=O)N1CCCC1Cc1c(-c2ccc(-c3c(CC4CCCN4C(=O)C(NC(=O)C(C)NC)C(C)(C)C)c4ccc(F)cc4n3CCO)cc2)n(CCO)c2cc(F)ccc12)C(C)(C)C (single isomer, unassigned) [Entry 60] |
| < 100 nM | CNC(C)C(=O)NC(C(=O)N1CCCC1Cc1c(-c2ccc(-c3c(CC4CCCN4C(=O)C(NC(=O)C(C)NC)C(C)(C)C)c4ccc(F)cc4n3CCO)cc2)n(CCO)c2cc(F)ccc12)C(C)(C)C (single isomer, unassigned) [Entry 487] |
| < 100 nM | CC(C)[C@H](NC(=O)[C@H](C)N)C(=O)N1CCC[C@H]1Cc1c(/C=C/c2oc3ccccc3c2C[C@@H]2CCCN2C(=O)[C@@H](NC(=O)[C@H](C)N)C(C)C)oc2ccccc12 [Entry 2] |
| < 100 nM | CC(C)[C@H](NC(=O)[C@H](C)N)C(=O)N1CCC[C@H]1Cc1c(CCc2oc3ccccc3c2C[C@@H]2CCCN2C(=O)[C@@H](NC(=O)[C@H](C)N)C(C)C)oc2ccccc12 [Entry 3] |
| < 100 nM | CC(C)[C@H](NC(=O)CN)C(=O)N1CCC[C@H]1Cc1c(-c2ccc(-c3oc4ccccc4c3C[C@@H]3CCCN3C(=O)[C@@H](NC(=O)[C@H](C)N)C(C)C)cc2)oc2ccccc12 [Entry 4] |
| < 100 nM | C[C@H](N)C(=O)N[C@H](C(=O)N1CCC[C@H]1Cc1c(-c2ccc(-c3oc4ccccc4c3C[C@@H]3CCCN3C(=O)[C@@H](NC(=O)[C@H](C)N)C(C)(C)C)cc2)oc2ccccc12)C(C)(C)C [Entry 7] |
| < 100 nM | CN[C@@H](C)C(=O)N[C@H](C(=O)N1CCC[C@H]1Cc1c(-c2ccc(-c3oc4ccccc4c3C[C@@H]3CCCN3C(=O)[C@@H](NC(=O)[C@H](C)NC)C(C)(C)C)cc2)oc2ccccc12)C(C)(C)C [Entry 8] |
| 100 to 1000 nM | CC[C@H](N)C(=O)N[C@H](C(=O)N1CCC[C@H]1Cc1c(-c2ccc(-c3oc4ccccc4c3C[C@@H]3CCCN3C(=O)[C@@H](NC(=O)[C@@H](N)CC)C(C)(C)C)cc2)oc2ccccc12)C(C)(C)C [Entry 9] |
| < 100 nM | CN[C@@H](C)C(=O)N[C@H](C(=O)N1CCC[C@H]1Cc1c(-c2ccc(-c3oc4ccccc4c3C[C@@H]3CCCN3C(=O)[C@@H](NC(=O)[C@H](C)NC)C(C)C)cc2)oc2ccccc12)C(C)C [Entry 10] |
| < 100 nM | CC[C@H](N)C(=O)N[C@H](C(=O)N1CCC[C@H]1Cc1c(-c2ccc(-c3oc4ccccc4c3C[C@@H]3CCCN3C(=O)[C@@H](NC(=O)[C@@H](N)CC)C(C)C)cc2)oc2ccccc12)C(C)C [Entry 11] |
| < 100 nM | C[C@H](N)C(=O)N[C@H](C(=O)N1CCC[C@H]1Cc1c(-c2ccc(-c3oc4ccccc4c3C[C@@H]3CCCN3C(=O)[C@@H](NC(=O)[C@H](C)N)C3CCCCC3)cc2)oc2ccccc12)C1CCCCC1 [Entry 12] |
| < 100 nM | CN[C@@H](C)C(=O)N[C@H](C(=O)N1CCC[C@H]1Cc1c(-c2ccc(-c3oc4ccccc4c3C[C@@H]3CCCN3C(=O)[C@@H](NC(=O)[C@H](C)NC)C3CCCCC3)cc2)oc2ccccc12)C1CCCCC1 [Entry 13] |
| 100 to 1000 nM | CC[C@H](N)C(=O)N[C@H](C(=O)N1CCC[C@H]1Cc1c(-c2ccc(-c3oc4ccccc4c3C[C@@H]3CCCN3C(=O)[C@@H](NC(=O)[C@@H](N)CC)C3CCCCC3)cc2)oc2ccccc12)C1CCCCC1 [Entry 14] |
| < 100 nM | CN[C@@H](C)C(=O)N[C@H](C(=O)N1CCC[C@H]1Cc1c(-c2ccc(-c3oc4ccccc4c3C[C@@H]3CCCN3C(=O)[C@@H](NC(=O)[C@H](C)NC)[C@@H](C)O)cc2)oc2ccccc12)[C@@H](C)O [Entry 15] |
| < 100 nM | CN[C@@H](C)C(=O)N[C@H](C(=O)N1CCC[C@H]1Cc1c(-c2ccc(-c3[nH]c4cc(F)ccc4c3C[C@@H]3CCCN3C(=O)[C@@H](NC(=O)[C@H](C)NC)C(C)C)cc2)[nH]c2cc(F)ccc12)C(C)C [Entry 16] |
| < 100 nM | CC(C)[C@H](NC(=O)[C@H](C)N)C(=O)N1CCC[C@H]1Cc1c(-c2ccc(-c3[nH]c4cc(F)ccc4c3C[C@@H]3CCCN3C(=O)[C@@H](NC(=O)[C@H](C)N)C(C)C)s2)[nH]c2cc(F)ccc12 [Entry 17] |
| < 100 nM | CN[C@@H](C)C(=O)N[C@H](C(=O)N1CCC[C@H]1Cc1c(-c2ccc(-c3[nH]c4cc(F)ccc4c3C[C@@H]3CCCN3C(=O)[C@@H](NC(=O)[C@H](C)NC)C3CCCCC3)s2)[nH]c2cc(F)ccc12)C1CCCCC1 [Entry 18] |
| < 100 nM | C[C@H](N)C(=O)N[C@H](C(=O)N1CCC[C@H]1Cc1c(-c2ccc(-c3[nH]c4cc(F)ccc4c3C[C@@H]3CCCN3C(=O)[C@@H](NC(=O)[C@H](C)N)C3CCCCC3)cc2)[nH]c2cc(F)ccc12)C1CCCCC1 [Entry 19] |
| < 100 nM | CN[C@@H](C)C(=O)N[C@H](C(=O)N1CCC[C@H]1Cc1c(-c2ccc(-c3[nH]c4cc(F)ccc4c3C[C@@H]3CCCN3C(=O)[C@@H](NC(=O)[C@H](C)NC)C3CCCCC3)cc2)[nH]c2cc(F)ccc12)C1CCCCC1 [Entry 20] |
| 100 to 1000 nM | CN[C@@H](C)C(=O)N[C@H](C(=O)N1C[C@H](O)C[C@H]1Cc1c(-c2ccc(-c3[nH]c4ccccc4c3C[C@@H]3C[C@@H](O)CN3C(=O)[C@@H](NC(=O)[C@H](C)NC)C(C)C)cc2)[nH]c2ccccc12)C(C)C [Entry 21] |
| 100 to 1000 nM | CN[C@@H](C)C(=O)N[C@H](C(=O)N1C[C@H](O)C[C@H]1Cc1c(-c2ccc(-c3[nH]c4ccccc4c3C[C@@H]3C[C@@H](O)CN3C(=O)[C@@H](NC(=O)[C@H](C)NC)C(C)(C)C)cc2)[nH]c2ccccc12)C(C)(C)C [Entry 22] |
| < 100 nM | CN[C@@H](C)C(=O)N[C@H](C(=O)N1CCC[C@H]1Cc1c(-c2ccc(-c3[nH]c4ccc(F)cc4c3C[C@@H]3CCCN3C(=O)[C@@H](NC(=O)[C@H](C)NC)C(C)C)cc2)[nH]c2ccc(F)cc12)C(C)C [Entry 23] |
| < 100 nM | CN[C@@H](C)C(=O)N[C@H](C(=O)N1C[C@@H](O)C[C@H]1Cc1c(-c2ccc(-c3[nH]c4ccccc4c3C[C@@H]3C[C@H](O)CN3C(=O)[C@@H](NC(=O)[C@H](C)NC)C(C)(C)C)cc2)[nH]c2ccccc12)C(C)(C)C [Entry 24] |
| < 100 nM | CN[C@@H](C)C(=O)N[C@H](C(=O)N1CCC[C@H]1Cc1c(-c2ccc(-c3[nH]c4cc(F)ccc4c3C[C@@H]3CCCN3C(=O)[C@@H](NC(=O)[C@H](C)NC)[C@@H](C)OCc3ccccc3)cc2)[nH]c2cc(F)ccc12)[C@@H](C)OCc1ccccc1 [Entry 25] |
| < 100 nM | CN[C@@H](C)C(=O)N[C@H](C(=O)N1CCC[C@H]1Cc1c(-c2ccc(-c3[nH]c4cc(F)ccc4c3C[C@@H]3CCCN3C(=O)[C@@H](NC(=O)[C@H](C)NC)[C@@H](C)OCc3ccccc3)cc2)[nH]c2cc(F)ccc12)[C@@H](C)O [Entry 26] |
| < 100 nM | CN[C@@H](C)C(=O)N[C@H](C(=O)N1CCC[C@H]1Cc1c(-c2ccc(-c3[nH]c4cc(F)ccc4c3C[C@@H]3CCCN3C(=O)[C@@H](NC(=O)[C@H](C)NC)[C@@H](C)O)cc2)[nH]c2cc(F)ccc12)[C@@H](C)O [Entry 27] |
| < 100 nM | CN[C@@H](C)C(=O)N[C@H](C(=O)N1C[C@@H](O)C[C@H]1Cc1c(-c2ccc(-c3[nH]c4cc(F)ccc4c3C[C@@H]3C[C@H](O)CN3C(=O)[C@@H](NC(=O)[C@H](C)NC)[C@@H](C)O)cc2)[nH]c2cc(F)ccc12)[C@@H](C)O [Entry 28] |

| Structure (SMILES) | Kd |
| --- | --- |
| CC(N)C(=O)NC(C(=O)N1CCCC1Cc1c(-c2ccc(-c3oc4ccccc4c3CC3CCCN3C(=O)C(NC(=O)C(C)N)C(C)C)cc2)oc2ccccc12)C(C)C (single isomer, unassigned) [Entry 61] | > 10000 nM |

same assay, conditions: XIAP BIR-3, FIG. 1

| increase in binding affinity relative to the Smac tetrapeptide (AVPI) | Structure (SMILES) |
| --- | --- |
| 30,000 fold | CC(C)[C@H](NC(=O)[C@H](C)N)C(=O)N1CCC[C@H]1Cc1c(-c2ccc(-c3[nH]c4cc(F)ccc4c3C[C@@H]3CCCN3C(=O)[C@@H](NC(=O)[C@H](C)N)C(C)C)s2)[nH]c2cc(F)ccc12 [Entry 17] |

From US9187490B2, “Dimeric IAP inhibitors” (TetraLogic Pharmaceuticals Corporation, priority 2005, dated 2015)
